In patent EP0595557A1, “New substituted azetidinones as anti-inflammatory and antidegenerative agents” (MERCK & CO. INC., priority 1992, dated 1994):

Target: T1, Human Polymorphonuclear Leukocyte Elastase (Homo sapiens, UniProt P08246)
T1 construct: Crude extract of human polymorphonuclear leukocytes (PMN) containing elastase activity; from tissue; host or cells: human polymorphonuclear leukocytes (crude extract)
T1 sequence (P08246 30-267): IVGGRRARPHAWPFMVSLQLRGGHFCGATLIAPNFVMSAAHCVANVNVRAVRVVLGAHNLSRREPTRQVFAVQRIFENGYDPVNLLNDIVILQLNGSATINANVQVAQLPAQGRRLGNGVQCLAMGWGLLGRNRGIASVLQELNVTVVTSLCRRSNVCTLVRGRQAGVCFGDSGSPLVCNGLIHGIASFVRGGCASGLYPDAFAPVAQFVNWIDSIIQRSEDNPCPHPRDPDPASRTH
Test: Enzyme assay for inhibition of human polymorphonuclear leukocyte elastase via hydrolysis of Boc-AAPAN or Boc-AAPVN
Type: biochemical
Details: expressed to the nearest thousand; for kinact/KI: pH 7.5, second order rate constant for inactivation of the enzyme, read-out: Kobs/[I]; for Kobs/[I]: second order rate constant for inactivation of the enzyme, pH 7.5
How it was run: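 Crude human PMN extract as enzyme source, with 0.2 mM Boc-AAPAN in 0.05M TES buffer pH 7.5. Inhibitors in DMSO were added to substrate before the extract, and rate was followed as ΔOD/min at 410 mµ. Values are kobs/I, the second-order inactivation rate constant (per mole per second).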

Row | Compound | kinact/KI [M⁻¹ s⁻¹] | Kobs/[I]
1 | CCC[C@@H](NC(=O)N1C(=O)C(CC)(CC)[C@@H]1Oc1ccc(C(=O)NCc2ccc(N(C)C)cc2)cc1)c1ccc(C)cc1 [Compound 110] | 5.6e+06 | 
2 | CCC[C@@H](NC(=O)N1C(=O)C(CC)(CC)[C@@H]1Oc1ccc(C(=O)OCCN(C)C(C)=O)cc1)c1ccc(C)cc1 (relative stereo) [Compound 7, 2-(N-methylacetamido)ethyl. {2-(R*,S*)}-4-{{3,3-Diethyl-1-{{{1-(4-methyl-phenyl)butyl}amino}carbonyl}-4-oxo-2-azetidinyl}oxy}-benzoate] | 1.56e+06 | 
3 | CCC[C@@H](NC(=O)N1C(=O)C(CC)(CC)[C@@H]1Oc1ccc(C(=O)OCCN2CCNCC2)cc1)c1ccc(C)cc1 [Compound 25] | 1.71e+06 | 
4 | CCC[C@@H](NC(=O)N1C(=O)C(CC)(CC)[C@@H]1Oc1ccc(C(=O)N(C)CCN2CCC(=O)CC2)cc1)c1ccc(C)cc1 [Compound 130] | 2.3e+06 | 
5 | CCC[C@@H](NC(=O)N1C(=O)C(CC)(CC)[C@@H]1Oc1ccc(CC(=O)N(C)CCN(C)C)cc1)c1ccc(OC)cc1 [Compound 285] |  | 566,000 per mole per second
6 | CCC[C@@H](NC(=O)N1C(=O)C(CC)(CC)[C@@H]1Oc1ccc(C(=O)NCCCC[C@H](N)C(=O)O)cc1)c1ccc(C)cc1 [Compound 209] | 929000 | 
7 | CCC[C@@H](NC(=O)N1C(=O)C(CC)(CC)[C@@H]1Oc1ccc(C(=O)OCC(=O)N2CCC[C@H]2C(=O)OCc2ccccc2)cc1)c1ccc(C)cc1 [Compound 8] | 1.25e+07 | 
8 | CCCCN(C)C(=O)c1ccc(O[C@@H]2N(C(=O)N[C@H](CCC)c3ccc4c(c3)OCO4)C(=O)C2(CC)CC)cc1 [Compound 262] | 3.12e+06 | 
9 | CCC[C@@H](NC(=O)N1C(=O)C(CC)(CC)[C@@H]1Oc1ccc(C(=O)N2CCN(C)CC2)cc1)c1ccc2c(c1)OCO2 [Compound 263, [S-(R*,S*)]-2-[4-[[(4-Methyl)piperazin-1-yl]carbonyl]phenoxy]-((3,3-diethyl-N-[1-(3,4-methylenedioxyphenyl)butyl]-4-oxo-1-azetidinecarboxamide] | 3.8e+06 | 
10 | CCC[C@@H](NC(=O)N1C(=O)C(CC)(CC)[C@@H]1Oc1ccc(CC(=O)N(CCC)CCC)cc1)c1ccc(C)c(C(=O)N2CCOCC2)c1 [Compound 271] | 826000 | 
11 | CCC[C@@H](NC(=O)N1C(=O)C(CC)(CC)[C@@H]1Oc1ccc(C(=O)OCCN2CCN(C(C)=O)CC2)cc1)c1ccc(C)cc1 [Compound 27] | 3.26e+06 | 
12 | CCC[C@@H](NC(=O)N1C(=O)C(CC)(CC)[C@@H]1Oc1ccc(C(=O)N2CCN(C3CC3)CC2)cc1)c1ccc(C)cc1 (relative stereo) [Compound 256, [S(R*,S*)]-2-[4-[[(4-Cyclopropyl)piperazin-1-yl]carbonyl]phenoxy]-((3,3-diethyl-N-[1-(4-methylphenyl)butyl]-4-oxo-1-azetidinecarboxamide] | 3.59e+06 | 
13 | CCC[C@@H](NC(=O)N1C(=O)C(CC)(CC)[C@@H]1Oc1ccc(C(=O)NC(C)CCCN(CC)CC)cc1)c1ccc(C)cc1 (stereo partly shown) [Compound 140] | 1.36e+06 | 
14 | CCC[C@@H](NC(=O)N1C(=O)C(CC)(CC)[C@@H]1Oc1ccc(CC(=O)Nc2cccc(OC)c2)cc1)c1ccc(C)cc1 [Compound 62] | 1.62e+06 | 
15 | CCC[C@@H](NC(=O)N1C(=O)C(CC)(CC)[C@@H]1Oc1ccc(CC(=O)N(C)CCCN(C)C)cc1)c1ccc(C)cc1 [Compound 56] | 1.05e+06 | 
16 | CCC[C@@H](NC(=O)N1C(=O)C(CC)(CC)[C@@H]1Oc1ccc(CC(=O)N(C)CCN2CCOCC2)cc1)c1ccc(C)cc1 [Compound 53] | 2.51e+06 | 
17 | CCC[C@@H](NC(=O)N1C(=O)C(CC)(CC)[C@@H]1Oc1ccc(C(=O)NCCN2CCC(O)CC2)cc1)c1ccc(C)cc1 [Compound 120, [S-(R+,S*)]-3,3-diethyl-2-[4-[[[2-(4-hydroxy-1-piperidinyl)ethyl]amino]carbonyl]phenoxy]-N-[1-(4-methyl-phenyl)butyl]-4-oxo-1-azetidine-carboxamide] | 1.73e+06 | 
18 | CCC[C@@H](NC(=O)N1C(=O)C(CC)(CC)[C@@H]1Oc1ccc(C(=O)N2CCN(CC(=O)OCC)CC2)cc1)c1ccc(C)cc1 [Compound 250] | 1.57e+06 | 
19 | CCC[C@@H](NC(=O)N1C(=O)C(CC)(CC)[C@@H]1Oc1ccc(C(=O)N(C)CCN2CCC(OCc3ccccc3)CC2)cc1)c1ccc(C)cc1 [Compound 126] | 3.48e+06 | 
20 | C=CCN(CCN(C)C(=O)c1ccc(O[C@@H]2N(C(=O)N[C@H](CCC)c3ccc(C)cc3)C(=O)C2(CC)CC)cc1)C(C)(C)C=C [Compound 231] | 925000 | 
21 | CCC[C@@H](NC(=O)N1C(=O)C(CC)(CC)[C@@H]1Oc1ccc(C(=O)NOCc2ccccc2)cc1)c1ccc(C)cc1 [Compound 190] | 1.8e+06 | 
22 | CCC[C@@H](NC(=O)N1C(=O)C(CC)(CC)[C@@H]1Oc1ccc(C(=O)OCCCCCCN(C)C)cc1)c1ccc(C)cc1 [Compound 24, [S-(R*,S*)]-6-(dimethylamino)hexyl-4-[[3,3-diethyl-1-[[[1-(4-methyl-phenyl)butyl]amino]carbonyl]-4-oxo-2-azetidinyl]oxy]-benzoate] | 1.99e+06 | 

Row | Compound | kinact/KI [M⁻¹ s⁻¹] | Kobs/[I]
23 | CCC[C@@H](NC(=O)N1C(=O)C(CC)(CC)[C@@H]1Oc1ccc(C(=O)O[C@@H](C)C(=O)OCc2ccccc2)cc1)c1ccc(C)cc1 (relative stereo) [Compound 10, 1-Methyl-2-oxo-2-(phenylmethoxy)ethyl(2S-(1(S*),R*,(R)))-4-((3,3-diethyl-1-(((1-(4-methylphenyl)butyl)amino)carbonyl)-4-oxo-2-azetidinyl)oxy) benzoate] | 2.89e+06 | 
24 | CCC[C@@H](NC(=O)N1C(=O)C(CC)(CC)[C@@H]1Oc1ccc(CC(=O)N(CC)CC)cc1)c1ccc(C)cc1 [Compound 60] | 1.08e+06 | 
25 | CCC[C@@H](NC(=O)N1C(=O)C(CC)(CC)[C@@H]1Oc1ccc(C(=O)N(C)CCN(C)C)cc1)c1ccc(CC)c(C(=O)N2CCOCC2)c1 [Compound 272] | 2.42e+06 | 
26 | CCC[C@@H](NC(=O)N1C(=O)C(CC)(CC)[C@@H]1Oc1ccc(C(=O)N2C[C@@H](C)O[C@@H](C)C2)cc1)c1ccc(C)cc1 [Compound 200] | 1.84e+06 | 
27 | CCC[C@@H](NC(=O)N1C(=O)C(CC)(CC)[C@@H]1Oc1ccc(C(=O)OCCCCN(C)C)cc1)c1ccc(C)cc1 [Compound 18, 4-dimethylaminobutyl [S-(R*,S*)]-4-[[3,3-diethyl-1-[[[1-(4-methyl-phenyl)butyl]amino]carbonyl]-4-oxo-2-azetidinyl]oxy]benzoate] | 1.93e+06 | 
28 | CCC[C@@H](NC(=O)N1C(=O)C(CC)(CC)[C@@H]1Oc1ccc(C(=O)N2CCCN(Cc3ccccc3)CC2)cc1)c1ccc(C)cc1 [Compound 155] | 1.98e+06 | 
29 | CCC[C@@H](NC(=O)N1C(=O)C(CC)(CC)[C@@H]1Oc1ccc(C(=O)N(C)CCN2CCCC2)cc1)c1ccc(C)cc1 [Compound 95] | 1e+06 | 
30 | CCC[C@@H](NC(=O)N1C(=O)C(CC)(CC)[C@@H]1Oc1ccc(CC(=O)N(C)CCN(C)C)cc1)c1ccc(C(=O)N2CCOCC2)cc1 [Compound 275] | 290000 | 
31 | CCC[C@@H](NC(=O)N1C(=O)C(CC)(CC)[C@@H]1Oc1ccc(C(=O)N(C)CC(c2ccccc2)N(C)C)cc1)c1ccc(C)cc1 (stereo partly shown) [Compound 186] | 1.05e+06 | 
32 | CCC[C@@H](NC(=O)N1C(=O)C(CC)(CC)[C@@H]1Oc1ccc(C(=O)N(C)C2CCCN(Cc3ccccc3)C2)cc1)c1ccc(C)cc1 (stereo partly shown) [Compound 189] | 1.88e+06 | 
33 | CCC[C@@H](NC(=O)N1C(=O)C(CC)(CC)[C@@H]1Oc1ccc(C(=O)N(C)CCN(C)Cc2ccncc2)cc1)c1ccc(C)cc1 [Compound 148] | 2.39e+06 | 
34 | CCC[C@@H](NC(=O)N1C(=O)C(CC)(CC)[C@@H]1Oc1ccc(C(=O)N(C)CCN2CC3CCC(CC3)C2)cc1)c1ccc(C)cc1 [Compound 103] | 3e+06 | 
35 | CCC[C@@H](NC(=O)N1C(=O)C(CC)(CC)[C@@H]1Oc1ccc(C(=O)N(CCN(C)C)Cc2ccccc2)cc1)c1ccc(C)cc1 [Compound 137] | 1.38e+06 | 
36 | CCC[C@@H](NC(=O)N1C(=O)C(CC)(CC)[C@@H]1Oc1ccc(CC(=O)N(C)CCN(C)C)cc1)c1ccc2c(c1)OCO2 [Compound 259] | 2.52e+06 | 
37 | CCC[C@@H](NC(=O)N1C(=O)C(CC)(CC)[C@@H]1Oc1ccc(CC(=O)NC(C)C(=O)O)cc1)c1ccc(C)cc1 (stereo partly shown) [Compound 48] | 676000 | 
38 | CCC[C@@H](NC(=O)N1C(=O)C(CC)(CC)[C@@H]1Oc1ccc(C(=O)N(C)CCN(C)CC2CCCCO2)cc1)c1ccc(C)cc1 (stereo partly shown) [Compound 173] | 2.94e+06 | 
39 | CCC[C@@H](NC(=O)N1C(=O)C(CC)(CC)[C@@H]1Oc1ccc(CC(=O)OCC(=O)O)cc1)c1ccc(C)cc1 [Compound 38] | 1.01e+06 | 
40 | CCC[C@@H](NC(=O)N1C(=O)C(CC)(CC)[C@@H]1Oc1cc(C)c(C(=O)OCCN(CC)CC)c(C)c1)c1ccc(C)cc1 [Compound 305, 2-(diethylamino)ethyl [S-(R*,S*)]-4-[[3,3-diethyl-1-[[[1-(4-methylphenyl)butyl]amino]carbonyl]-4-oxo-2-azetidinyl]oxy]-2,6-dimethyl-benzoate] | 749000 | 
41 | [S-(R*,S*)]-2-[4-[[(4-Methyl)piperazin-1-yl]carbonyl] phenoxy]-((3,3-diethyl-N-[1-(methylphenyl)butyl]-4-oxo-1-azetidinecarboxamide [Compound 242] |  | 1,700,000 per mole per second
42 | CCC[C@@H](NC(=O)N1C(=O)C(CC)(CC)[C@@H]1Oc1ccc(C(=O)N(C)CCN(C)CC(=O)OC(C)(C)C)cc1)c1ccc(C)cc1 [Compound 171] | 1.83e+06 | 
43 | CCC[C@@H](NC(=O)N1C(=O)C(CC)(CC)[C@@H]1Oc1ccc(C(=O)N(C)CCN(C)Cc2cccc(F)c2)cc1)c1ccc(C)cc1 [Compound 203] | 1.26e+06 | 
